This is an account of results in article PMC3443605 (Journal of medicinal chemistry, 2012).

Entries after “also recorded” stand apart in the source; their conditions may differ.

A word on the Ki: it is a dissociation constant, usually derived from enzyme kinetics or from competition with a known ligand. By EC50 is commonly meant the midpoint of the concentration-response curve.

Series [1] concerns the target T1, D2L receptors (Homo sapiens, UniProt P14416). In words: D2R radioligand binding assay.
Target sequence in this assay (P14416 whole entry): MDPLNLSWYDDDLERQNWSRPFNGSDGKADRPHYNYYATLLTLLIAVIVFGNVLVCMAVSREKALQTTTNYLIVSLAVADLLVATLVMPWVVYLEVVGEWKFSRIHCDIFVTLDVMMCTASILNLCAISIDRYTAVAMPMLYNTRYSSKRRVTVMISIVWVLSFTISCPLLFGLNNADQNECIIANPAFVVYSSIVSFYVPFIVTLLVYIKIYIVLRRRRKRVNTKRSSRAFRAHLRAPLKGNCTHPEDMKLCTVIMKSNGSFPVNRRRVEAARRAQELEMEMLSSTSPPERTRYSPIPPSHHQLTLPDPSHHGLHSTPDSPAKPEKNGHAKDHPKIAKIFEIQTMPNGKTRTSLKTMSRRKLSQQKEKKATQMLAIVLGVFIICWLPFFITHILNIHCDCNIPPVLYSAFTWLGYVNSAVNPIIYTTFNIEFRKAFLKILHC
For series [2], the target named is T1, D2L receptors. In words: cell-based. In kind it is cell-based.
Target sequence in this assay (P14416 whole entry, added parts left off): as the sequence (P14416 whole entry) above
Target sequence in this assay (P32121 whole entry partner): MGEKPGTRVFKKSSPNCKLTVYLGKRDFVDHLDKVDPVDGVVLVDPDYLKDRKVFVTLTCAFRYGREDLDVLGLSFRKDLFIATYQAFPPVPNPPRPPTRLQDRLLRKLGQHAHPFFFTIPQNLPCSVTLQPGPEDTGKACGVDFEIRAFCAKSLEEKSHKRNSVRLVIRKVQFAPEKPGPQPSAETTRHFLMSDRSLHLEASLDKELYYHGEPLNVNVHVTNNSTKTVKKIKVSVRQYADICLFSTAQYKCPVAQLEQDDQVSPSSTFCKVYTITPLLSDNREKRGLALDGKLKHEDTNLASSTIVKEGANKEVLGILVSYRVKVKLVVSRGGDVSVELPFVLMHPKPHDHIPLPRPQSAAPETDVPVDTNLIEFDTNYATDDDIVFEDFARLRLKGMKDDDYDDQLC
For series [3] the following is noted: cited from earlier work.
Series [4] concerns wild-type mice. As to the kind of experiment: PCP-induced hyperlocomotion in wild-type mice. To be noted: 2 mg/kg i.p., 30 min before 6 mg/kg PCP i.p. In kind it is in vivo, mouse.
The test system of series [5] is β-arrestin-2 knockout mice. In words: PCP-induced hyperlocomotion in β-arrestin-2 knockout mice. The format is in vivo, mouse. To be noted: 2 mg/kg i.p., 30 min before 6 mg/kg PCP i.p.
The target in series [6] is D1 receptor (Homo sapiens, UniProt P21728). In words: PDSP radioligand binding assay, D1. The note with it: Table S1.
For series [7], the target named is D5 receptor (Homo sapiens, UniProt P21918). In words: PDSP radioligand binding assay, D5. To be noted: Table S1.
For series [8], the target named is D3 receptor (Homo sapiens, UniProt P35462). As to the kind of experiment: PDSP radioligand binding assay, D3. To be noted: Table S1.
Series [9] concerns the target T2, D4 receptor (Homo sapiens, UniProt P21917).
T2 sequence (P21917 1-419): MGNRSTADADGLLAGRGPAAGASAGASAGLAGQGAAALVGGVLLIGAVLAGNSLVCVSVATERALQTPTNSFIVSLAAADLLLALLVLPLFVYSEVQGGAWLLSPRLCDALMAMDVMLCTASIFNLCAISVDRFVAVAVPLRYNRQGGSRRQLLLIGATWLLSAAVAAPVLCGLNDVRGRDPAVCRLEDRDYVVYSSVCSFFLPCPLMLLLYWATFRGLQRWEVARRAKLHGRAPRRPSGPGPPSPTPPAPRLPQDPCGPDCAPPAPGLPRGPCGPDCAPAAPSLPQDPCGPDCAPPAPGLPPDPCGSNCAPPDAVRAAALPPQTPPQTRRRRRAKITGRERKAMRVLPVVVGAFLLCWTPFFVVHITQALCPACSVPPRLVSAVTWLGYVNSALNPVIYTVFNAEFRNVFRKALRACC
As to the kind of experiment: PDSP radioligand binding assay, D4. The note with it: Table S1.

Series [10] relates to wild-type mice. To be noted: cited from earlier work.
The test system of series [11] is β-arrestin-2 knockout mice. To be noted: cited from earlier work.
Series [12] deals with wild-type mice. The note with it: cited from earlier work. The source holds these as a separate data set.

Sequence of D5 receptor (P21918 whole entry): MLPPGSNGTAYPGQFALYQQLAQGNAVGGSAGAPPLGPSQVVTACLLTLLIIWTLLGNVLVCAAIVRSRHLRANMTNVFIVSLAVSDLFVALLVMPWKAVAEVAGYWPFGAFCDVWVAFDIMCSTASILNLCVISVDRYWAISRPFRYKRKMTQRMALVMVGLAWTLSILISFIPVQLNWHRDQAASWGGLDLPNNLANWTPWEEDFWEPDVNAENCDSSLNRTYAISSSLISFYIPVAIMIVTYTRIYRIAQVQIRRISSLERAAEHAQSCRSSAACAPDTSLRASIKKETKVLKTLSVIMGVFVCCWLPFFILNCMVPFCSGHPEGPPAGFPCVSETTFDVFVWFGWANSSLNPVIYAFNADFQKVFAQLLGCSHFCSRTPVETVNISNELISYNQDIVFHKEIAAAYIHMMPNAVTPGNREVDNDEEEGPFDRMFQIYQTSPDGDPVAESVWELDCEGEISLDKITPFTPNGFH
Sequence of D1 receptor (P21728 whole entry): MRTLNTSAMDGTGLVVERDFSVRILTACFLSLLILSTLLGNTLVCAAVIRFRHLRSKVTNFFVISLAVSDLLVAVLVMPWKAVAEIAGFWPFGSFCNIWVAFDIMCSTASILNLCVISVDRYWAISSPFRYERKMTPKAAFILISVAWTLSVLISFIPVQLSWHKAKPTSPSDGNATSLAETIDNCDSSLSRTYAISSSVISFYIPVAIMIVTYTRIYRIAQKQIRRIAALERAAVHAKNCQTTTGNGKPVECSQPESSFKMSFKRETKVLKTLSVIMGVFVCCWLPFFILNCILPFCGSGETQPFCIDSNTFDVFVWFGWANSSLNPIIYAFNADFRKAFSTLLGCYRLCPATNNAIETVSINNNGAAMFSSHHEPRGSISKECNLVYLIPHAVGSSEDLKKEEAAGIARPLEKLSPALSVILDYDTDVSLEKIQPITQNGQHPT
Sequence of D3 receptor (P35462 whole entry): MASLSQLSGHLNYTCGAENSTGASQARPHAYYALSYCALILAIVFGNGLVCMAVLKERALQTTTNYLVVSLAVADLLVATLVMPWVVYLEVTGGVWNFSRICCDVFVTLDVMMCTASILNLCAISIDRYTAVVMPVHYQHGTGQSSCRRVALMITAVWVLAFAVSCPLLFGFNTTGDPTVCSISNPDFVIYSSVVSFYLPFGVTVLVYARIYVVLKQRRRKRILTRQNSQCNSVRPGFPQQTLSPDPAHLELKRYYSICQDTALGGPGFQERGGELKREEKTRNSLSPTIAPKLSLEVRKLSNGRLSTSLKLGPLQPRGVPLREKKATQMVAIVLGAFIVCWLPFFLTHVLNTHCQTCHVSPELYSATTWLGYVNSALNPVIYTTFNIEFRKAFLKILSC

`O=C1CCc2ccc(OC[C@@H]3C[C@H]3CN3CCN(c4cccc(Cl)c4Cl)CC3)cc2N1` (relative stereo) [Compound 24, Trans-7-((2-((4-(2,3-dichlorophenyl)piperazin-1-yl)methyl)cyclopropyl)methoxy)-3,4-dihydroquinolin-2(1H)-one] showed a Ki in [1] of 235 nM. The molecule also gave an EC50 in [2] of 1260 nM.
With `O=C1CCc2ccc(OCCCCN3CCN(c4cccc(Cl)c4Cl)CC3)cc2N1` [Compound 1, aripiprazole], the oral bioavailability result in series [3] is “high”.
In the case of `CC(C)Oc1ccccc1N1CCN(CCCCOc2ccc3c(c2)NC(=O)CC3)CC1` [Compound 4, 7-(4-(4-(2-Isopropoxyphenyl)piperazin-1-yl)butoxy)-3,4-dihydroquinolin-2(1H)-one], the “potency at activating β-arrestin versus Gi signaling” value in [2] is “about 10 fold”.
As for `O=C1CCc2ccc(OCCCCN3CCCN(c4cccc(Cl)c4Cl)CC3)cc2N1` [Compound 19], the “effect on PCP-induced hyperlocomotion, wild-type mice” value in series [4] is “markedly inhibited”. Also, in series [5], the “antipsychotic-like activity (PCP-induced hyperlocomotion), β-arrestin-2 knockout mice” value is reported as “neither compound affected; also recorded: completely abolished”. In addition, the “binding affinity to D1 receptor” value in [6] is on record as “low affinities”. The “binding affinity to D5 receptor” value in series [7] is given as “low affinities”.
With `Clc1cccc(C2CCN(CCCCOc3ccc4scnc4c3)CC2)c1Cl` [Compound 35, 5-(4-(4-(2,3-Dichlorophenyl)piperidin-1-yl)butoxy)benzo[d]thiazole], the “binding affinity to D2 receptor” value in [1] (Table S1) was “high affinities”. For the same molecule, in series [4], the “effect on PCP-induced hyperlocomotion, wild-type mice” value is “significantly reduced”. The “antipsychotic-like activity (PCP-induced hyperlocomotion), β-arrestin-2 knockout mice” value in series [5] is given as “neither compound affected”. The “binding affinity to D1 receptor” value in series [6] is on record as “low affinities”. The “binding affinity to D3 receptor” value in series [8] is “high affinities”. Also, in series [9], the “binding affinity to D4 receptor” value is on record as “high affinities”. Besides, the “binding affinity to D5 receptor” value in series [7] is given as “low affinities”.
For the molecule `Clc1cccc(C2CCN(CCCOc3ccc4scnc4c3)CC2)c1Cl` [Compound 36], the “antipsychotic drug-like activities in wild-type mice” value in series [10] is reported as “robust”. In addition, the “antipsychotic drug-like activities in β-arrestin-2 knockout mice” value in [11] was “significantly attenuated or completely abolished”. For the same molecule, the “catalepsy in wild-type mice” value in series [12] is given as “did not induce catalepsy”.
As to `O=C1CCc2ccc(OCCCCN3CCCN(c4cccc(Cl)c4Cl)CC3)nc2N1` [Compound 44], in series [10], the “antipsychotic drug-like activities in wild-type mice” value is listed as “robust”. For the same molecule, the “antipsychotic drug-like activities in β-arrestin-2 knockout mice” value in series [11] is “significantly attenuated or completely abolished”. Besides, in [12], the “catalepsy in wild-type mice” value is “did not induce catalepsy”.
